Results published in patent US20250011318A1 (ARCUS BIOSCIENCES, INC., priority 2023, published 2025).

Assays:
Jurkat cells = test: IL-2 secretion assay in CD3/CD28-activated Jurkat cells (AlphaLISA); assay type: cell-based, human; conditions: Homo sapiens, CD3/CD28 T Cell Activator, 24 h, IL-2 AlphaLISA
In short: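 IL-2 release quantified by AlphaLISA in supernatants after 24 h CD3/CD28 activation at 37° C. Compounds, 10 μM to 300 pM final in 1:2 steps, were added to 50,000 Jurkat cells/well 1 h before activation; 4-parameter fit gave EC50.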

Cbl-b = molecular target: T1, Cbl-b (Homo sapiens, UniProt Q13191); test: Cbl-b probe displacement HTRF binding assay; conditions: 0.4 nM biotinylated Cbl-b, 150 nM BODIPY probe
T1 construct: biotin (biotinylated)
T1 sequence (Q13191 whole entry, species assumed): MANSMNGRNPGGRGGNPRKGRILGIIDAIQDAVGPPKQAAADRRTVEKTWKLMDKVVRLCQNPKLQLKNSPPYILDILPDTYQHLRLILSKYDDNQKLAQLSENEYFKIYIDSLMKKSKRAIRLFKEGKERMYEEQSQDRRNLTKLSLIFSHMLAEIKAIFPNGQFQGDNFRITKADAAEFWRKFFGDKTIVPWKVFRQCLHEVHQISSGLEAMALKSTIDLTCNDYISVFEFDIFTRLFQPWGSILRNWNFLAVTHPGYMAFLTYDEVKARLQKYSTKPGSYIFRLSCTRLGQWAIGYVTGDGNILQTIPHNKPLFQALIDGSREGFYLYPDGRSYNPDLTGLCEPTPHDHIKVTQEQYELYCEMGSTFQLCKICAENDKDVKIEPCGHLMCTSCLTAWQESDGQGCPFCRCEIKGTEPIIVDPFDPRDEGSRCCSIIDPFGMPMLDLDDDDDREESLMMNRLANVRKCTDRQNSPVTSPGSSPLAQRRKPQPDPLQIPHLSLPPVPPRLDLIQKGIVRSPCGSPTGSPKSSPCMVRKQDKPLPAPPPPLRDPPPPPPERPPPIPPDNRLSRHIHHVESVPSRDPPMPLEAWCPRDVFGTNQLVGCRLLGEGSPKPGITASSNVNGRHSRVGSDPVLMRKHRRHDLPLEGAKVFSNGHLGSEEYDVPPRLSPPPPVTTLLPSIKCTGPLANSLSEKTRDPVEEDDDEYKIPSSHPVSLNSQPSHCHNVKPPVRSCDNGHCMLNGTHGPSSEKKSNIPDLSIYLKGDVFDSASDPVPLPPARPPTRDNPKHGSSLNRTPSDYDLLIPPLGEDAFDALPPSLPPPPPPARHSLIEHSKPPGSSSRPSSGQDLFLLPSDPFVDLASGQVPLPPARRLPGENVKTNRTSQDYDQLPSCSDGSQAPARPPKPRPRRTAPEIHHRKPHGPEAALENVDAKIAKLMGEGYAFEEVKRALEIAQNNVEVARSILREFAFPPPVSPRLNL
In short: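 Probe-displacement HTRF in Hepes/NaCl/Triton/TCEP/BSA buffer at room temperature: compound dilutions (to 10 μM) incubated 60 min with 0.4 nM biotin-Cbl-b, 150 nM BODIPY probe added for 15 min, Tb-streptavidin read. Signal normalised to DMSO and no-protein controls; IC50 from four-parameter curve.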

| EC50 (Jurkat cells) | IC50 (Cbl-b) | SMILES |
| --- | --- | --- |
| 100 to 1000 nM | < 100 nM | Cc1cccc(C(N)c2cc3c(C#N)cn(-c4cc(-c5ccc(F)cc5-c5nncn5C)cc(C5CC5)n4)c(=O)c3[nH]2)n1 (centres unmarked) [Example 95, 2-[amino(6-methyl-2-pyridyl)methyl]-6-{6-cyclopropyl-4-[4-fluoro-2-(4-methyl-4H-1,2,4-triazol-3-yl)phenyl]-2-pyridyl}-7-oxo-1,6-dihydro-1,6-diaza-4-indenecarbonitrile] |
| < 100 nM | < 100 nM | Cn1cnnc1-c1cc(F)ccc1-c1cc(C2CC2)nc(-n2cc(C#N)c3cc(CC4(O)CCCCC4)[nH]c3c2=O)c1 [Example 96, 6-{6-cyclopropyl-4-[4-fluoro-2-(4-methyl-4H-1,2,4-triazol-3-yl)phenyl]-2-pyridyl}-2-[(1-hydroxycyclohexyl)methyl]-7-oxo-1,6-dihydro-1,6-diaza-4-indenecarbonitrile] |
| 100 to 1000 nM | < 100 nM | Cn1cnnc1-c1cc(F)ccc1-c1cc(C2CC2)nc(-n2cc(C#N)c3cc([C@@H](N)C(F)(F)F)[nH]c3c2=O)c1 [Example 97, 2-[(R)-1-amino-2,2,2-trifluoroethyl]-6-{6-cyclopropyl-4-[4-fluoro-2-(4-methyl-4H-1,2,4-triazol-3-yl)phenyl]-2-pyridyl}-7-oxo-1,6-dihydro-1,6-diaza-4-indenecarbonitrile] |
| < 100 nM | < 100 nM | Cn1cnnc1-c1cc(F)ccc1-c1cc(C2CC2)nc(-n2cc(C#N)c3cc([C@H](N)C(F)(F)F)[nH]c3c2=O)c1 [Example 98, 2-[(S)-1-amino-2,2,2-trifluoroethyl]-6-{6-cyclopropyl-4-[4-fluoro-2-(4-methyl-4H-1,2,4-triazol-3-yl)phenyl]-2-pyridyl}-7-oxo-1,6-dihydro-1,6-diaza-4-indenecarbonitrile] |
| 100 to 1000 nM | < 100 nM | CC1(NCc2cc3c(C4CC4)cn(-c4cc(-c5ccc(F)cc5-n5nccc5C(F)(F)F)cc(C5CC5)n4)c(=O)c3[nH]2)CCC1 [Example 103, 4-cyclopropyl-6-[6-cyclopropyl-4-[4-fluoro-2-[5-(trifluoromethyl)pyrazol-1-yl]phenyl]pyridin-2-yl]-2-[[(1-methylcyclobutyl)amino]methyl]-1H-pyrrolo[2,3-c]pyridin-7-one] |
| 100 to 1000 nM | < 100 nM | COCCNCc1cc2ncn(-c3cc(-c4ccc(F)cc4-n4nccc4C(F)(F)F)cc(C4CC4)n3)c(=O)c2[nH]1 [Example 104, 3-[6-cyclopropyl-4-[4-fluoro-2-[5-(trifluoromethyl)pyrazol-1-yl]phenyl]pyridin-2-yl]-6-[(2-methoxyethylamino)methyl]-5H-pyrrolo[3,2-d]pyrimidin-4-one] |
| 100 to 1000 nM | < 100 nM | CC1(NCc2cc3ncn(-c4cc(-c5ccc(F)cc5-n5nccc5C(F)(F)F)cc(C5CC5)n4)c(=O)c3[nH]2)CCC1 [Example 105, 3-[6-cyclopropyl-4-[4-fluoro-2-[5-(trifluoromethyl)pyrazol-1-yl]phenyl]pyridin-2-yl]-6-[[(1-methylcyclobutyl)amino]methyl]-5H-pyrrolo[3,2-d]pyrimidin-4-one] |
| < 100 nM | < 100 nM | Cc1ccnnc1-c1cc(F)ccc1-c1cc(C2CC2)nc(-n2cnc3cc(CN4CCO[C@H](C)C4)[nH]c3c2=O)c1 [Example 106, 3-[6-cyclopropyl-4-[4-fluoro-2-(4-methylpyridazin-3-yl)phenyl]pyridin-2-yl]-6-[[(2R)-2-methylmorpholin-4-yl]methyl]-5H-pyrrolo[3,2-d]pyrimidin-4-one] |
| < 100 nM | < 100 nM | COCCNCc1cc2ncn(-c3cc(-c4ccc(F)cc4-c4nc(C#N)cn4C)cc(C4CC4)n3)c(=O)c2[nH]1 [Example 107, 2-[2-[2-cyclopropyl-6-[6-[(2-methoxyethylamino)methyl]-4-oxo-5H-pyrrolo[3,2-d]pyrimidin-3-yl]pyridin-4-yl]-5-fluorophenyl]-1-methylimidazole-4-carbonitrile] |
| < 100 nM | < 100 nM | COCCN(C)Cc1cc2ncn(-c3cc(-c4ccc(F)cc4-c4nc(C#N)cn4C)cc(C4CC4)n3)c(=O)c2[nH]1 [Example 108, 2-{2-[6-cyclopropyl-2-(2-{[(2-methoxyethyl)-N-methylamino]methyl}-7-oxo-1,6-dihydro-1,4,6-triaza-6-indenyl)-4-pyridyl]-5-fluorophenyl}-1-methyl-4-imidazolecarbonitrile] |
| 100 to 1000 nM | < 100 nM | COC1CN(Cc2cc3ncn(-c4cc(-c5ccc(F)cc5-c5nc(C#N)cn5C)cc(C5CC5)n4)c(=O)c3[nH]2)C1 [Example 109, 2-[2-(6-cyclopropyl-2-{2-[(3-methoxy-1-azetidinyl)methyl]-7-oxo-1,6-dihydro-1,4,6-triaza-6-indenyl}-4-pyridyl)-5-fluorophenyl]-1-methyl-4-imidazolecarbonitrile] |
| < 100 nM | < 100 nM | COCCNCc1cc2c(C3CC3)cn(-c3cc(-c4ccc(F)cc4-c4nc(C#N)cn4C)cc(C4CC4)n3)c(=O)c2[nH]1 [Example 110, 2-[2-[2-cyclopropyl-6-[4-cyclopropyl-2-[(2-methoxyethylamino)methyl]-7-oxo-1H-pyrrolo[2,3-c]pyridin-6-yl]pyridin-4-yl]-5-fluorophenyl]-1-methylimidazole-4-carbonitrile] |
| < 100 nM | < 100 nM | COC[C@H](C)NCc1cc2ncn(-c3cc(-c4ccc(F)cc4-c4nc(C#N)cn4C)cc(C4CC4)n3)c(=O)c2[nH]1 [Example 111, 2-[2-[2-cyclopropyl-6-[6-[[[(2S)-1-methoxypropan-2-yl]amino]methyl]-4-oxo-5H-pyrrolo[3,2-d]pyrimidin-3-yl]pyridin-4-yl]-5-fluorophenyl]-1-methylimidazole-4-carbonitrile] |
| < 100 nM | < 100 nM | Cn1cc(C#N)nc1-c1cc(F)ccc1-c1cc(C2CC2)nc(-n2cnc3cc(CNCCC(F)(F)F)[nH]c3c2=O)c1 [Example 112, 2-[2-[2-cyclopropyl-6-[4-oxo-6-[(3,3,3-trifluoropropylamino)methyl]-5H-pyrrolo[3,2-d]pyrimidin-3-yl]pyridin-4-yl]-5-fluorophenyl]-1-methylimidazole-4-carbonitrile] |
| < 100 nM | < 100 nM | Cn1cc(C#N)nc1-c1cc(C#N)ccc1-c1cc(C2CC2)nc(-n2cnc3cc(CNC4(C)CCC4)[nH]c3c2=O)c1 [Example 115, 2-[5-cyano-2-[2-cyclopropyl-6-[6-[[(1-methylcyclobutyl)amino]methyl]-4-oxo-5H-pyrrolo[3,2-d]pyrimidin-3-yl]pyridin-4-yl]phenyl]-1-methylimidazole-4-carbonitrile] |
| < 100 nM | < 100 nM | COCCNCc1cc2ncn(-c3cc(-c4ccc(C#N)cc4-c4nc(C#N)cn4C)cc(C4CC4)n3)c(=O)c2[nH]1 [Example 116, 2-[5-cyano-2-[2-cyclopropyl-6-[6-[(2-methoxyethylamino)methyl]-4-oxo-5H-pyrrolo[3,2-d]pyrimidin-3-yl]pyridin-4-yl]phenyl]-1-methylimidazole-4-carbonitrilef] |
| 100 to 1000 nM | < 100 nM | C[C@H]1CCCN(Cc2cc3c(C4CC4)cn(-c4cc(-c5ccc(C#N)cc5-c5nc(C(F)(F)F)cn5C)cc(C5CC5)n4)c(=O)c3[nH]2)C1 [Example 117, 4-[2-(2-{[(S)-3-methyl-1-piperidyl]methyl}-4-cyclopropyl-7-oxo-1,6-dihydro-1,6-diaza-6-indenyl)-6-cyclopropyl-4-pyridyl]-3-[1-methyl-4-(trifluoromethyl)-2-imidazolyl]benzonitrile] |
| 100 to 1000 nM | < 100 nM | COCCNCc1cc2ncn(-c3cc(-c4ccc(F)cc4-c4ncnn4C)cc(C4CC4)n3)c(=O)c2[nH]1 [Example 118, 3-[6-cyclopropyl-4-[4-fluoro-2-(2-methyl-1,2,4-triazol-3-yl)phenyl]-pyridin-2-yl]-6-[(2-methoxyethylamino)methyl]-5H-pyrrolo[3,2-d]pyrimidin-4-one] |
| 100 to 1000 nM | < 100 nM | C[C@H]1CCCN(Cc2cc3c(C4CC4)cn(-c4cc(-c5ccc(F)cc5-c5ncnn5C)cc(C5CC5)n4)c(=O)c3[nH]2)C1 [Example 119, 4-Cyclopropyl-6-[6-cyclopropyl-4-[4-fluoro-2-(2-methyl-1,2,4-triazol-3-yl)phenyl]pyridin-2-yl]-2-[[(3S)-3-methylpiperidin-1-yl]methyl]-1H-pyrrolo[2,3-c]pyridin-7-one] |
| < 100 nM | < 100 nM | Cn1ncnc1-c1cc(F)ccc1-c1cc(C2CC2)nc(-n2cnc3cc(CNC4(C)CCC4)[nH]c3c2=O)c1 [Example 120, 3-[6-cyclopropyl-4-[4-fluoro-2-(2-methyl-1,2,4-triazol-3-yl)phenyl]-pyridin-2-yl]-6-[[(1-methylcyclobutyl)amino]methyl]-5H-pyrrolo[3,2-d]pyrimidin-4-one] |
| 100 to 1000 nM | < 100 nM | Cn1cnnc1-c1cc(F)ccc1-c1cc(C2CC2)nc(-n2cnc3cc(CC4CCCC4)[nH]c3c2=O)c1 [Example 121, 6-(cyclopentylmethyl)-3-[6-cyclopropyl-4-[4-fluoro-2-(4-methyl-1,2,4-triazol-3-yl)phenyl]pyridin-2-yl]-5H-pyrrolo[3,2-d]pyrimidin-4-one] |

| SMILES | EC50 (Jurkat cells) | IC50 (Cbl-b) |
| --- | --- | --- |
| C[C@H]1CCCN(Cc2cc3c(S(C)(=O)=O)cn(-c4cc(-c5ccc(C#N)cc5-c5nccn5C)cc(C5CC5)n4)c(=O)c3[nH]2)C1 [Example 99, 4-[2-(2-{[(S)-3-methyl-1-piperidyl]methyl}-4-mesyl-7-oxo-1,6-dihydro-1,6-diaza-6-indenyl)-6-cyclopropyl-4-pyridyl]-3-(1-methyl-2-imidazolyl)benzonitrile] | < 100 nM | < 100 nM |
